How the values were obtained:
HCT116 = assay: In vitro cytotoxic activity, MTT colorimetric assay, HCT116; assay type: cell-based; details: Homo sapiens, HCT-116, read-out: IC50 HCT116
A549 = assay: In vitro cytotoxic activity, MTT colorimetric assay, A549; assay type: cell-based; details: Homo sapiens, A549, read-out: IC50 A549
MCF-7 = assay: In vitro cytotoxic activity, MTT colorimetric assay, MCF-7; assay type: cell-based; details: Homo sapiens, MCF7, read-out: IC50 MCF-7
HepG2 = assay: In vitro cytotoxic activity, MTT colorimetric assay, HepG2; assay type: cell-based; details: Homo sapiens, HepG2, read-out: IC50 HepG2
EGFR^T790M = EGFR^T790M (Homo sapiens, UniProt P00533, T790M); assay: EGFR^T790M kinase inhibitory assay; assay type: biochemical
Sequence of EGFR^T790M (P00533 25-1210 T790M): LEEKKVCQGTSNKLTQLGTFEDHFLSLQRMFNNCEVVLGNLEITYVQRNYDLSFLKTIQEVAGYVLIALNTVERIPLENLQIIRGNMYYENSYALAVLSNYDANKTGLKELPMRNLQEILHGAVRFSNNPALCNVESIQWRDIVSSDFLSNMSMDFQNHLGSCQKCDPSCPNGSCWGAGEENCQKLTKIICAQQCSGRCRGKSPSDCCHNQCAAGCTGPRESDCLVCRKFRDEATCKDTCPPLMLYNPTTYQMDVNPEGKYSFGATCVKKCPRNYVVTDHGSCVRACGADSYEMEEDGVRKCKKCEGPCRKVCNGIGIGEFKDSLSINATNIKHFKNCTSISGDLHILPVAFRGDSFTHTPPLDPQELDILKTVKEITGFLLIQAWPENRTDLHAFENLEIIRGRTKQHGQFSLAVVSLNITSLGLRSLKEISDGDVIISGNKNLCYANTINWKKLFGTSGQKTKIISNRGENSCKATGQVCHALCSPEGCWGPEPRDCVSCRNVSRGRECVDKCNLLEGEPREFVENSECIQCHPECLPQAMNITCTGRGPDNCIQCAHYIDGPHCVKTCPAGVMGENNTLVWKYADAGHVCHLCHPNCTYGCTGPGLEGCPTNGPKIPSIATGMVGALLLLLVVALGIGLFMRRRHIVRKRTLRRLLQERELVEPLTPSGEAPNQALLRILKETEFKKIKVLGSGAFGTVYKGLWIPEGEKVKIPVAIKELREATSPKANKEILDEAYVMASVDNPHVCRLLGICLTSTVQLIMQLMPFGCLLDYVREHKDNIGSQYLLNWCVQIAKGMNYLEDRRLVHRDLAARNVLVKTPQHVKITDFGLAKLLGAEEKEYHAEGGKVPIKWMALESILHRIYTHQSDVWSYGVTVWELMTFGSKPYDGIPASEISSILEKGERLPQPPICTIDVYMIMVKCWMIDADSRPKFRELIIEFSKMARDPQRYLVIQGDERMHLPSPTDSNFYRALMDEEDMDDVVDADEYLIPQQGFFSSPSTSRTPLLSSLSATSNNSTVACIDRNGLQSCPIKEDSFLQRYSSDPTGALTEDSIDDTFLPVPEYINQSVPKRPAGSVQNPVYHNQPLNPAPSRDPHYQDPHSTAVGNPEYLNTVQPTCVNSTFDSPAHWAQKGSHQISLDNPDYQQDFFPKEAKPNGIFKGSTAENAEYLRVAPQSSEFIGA

VEGFR-2 = VEGFR-2 (Homo sapiens, UniProt P35968); assay: biochemical
Sequence of VEGFR-2 (P35968 20-1356): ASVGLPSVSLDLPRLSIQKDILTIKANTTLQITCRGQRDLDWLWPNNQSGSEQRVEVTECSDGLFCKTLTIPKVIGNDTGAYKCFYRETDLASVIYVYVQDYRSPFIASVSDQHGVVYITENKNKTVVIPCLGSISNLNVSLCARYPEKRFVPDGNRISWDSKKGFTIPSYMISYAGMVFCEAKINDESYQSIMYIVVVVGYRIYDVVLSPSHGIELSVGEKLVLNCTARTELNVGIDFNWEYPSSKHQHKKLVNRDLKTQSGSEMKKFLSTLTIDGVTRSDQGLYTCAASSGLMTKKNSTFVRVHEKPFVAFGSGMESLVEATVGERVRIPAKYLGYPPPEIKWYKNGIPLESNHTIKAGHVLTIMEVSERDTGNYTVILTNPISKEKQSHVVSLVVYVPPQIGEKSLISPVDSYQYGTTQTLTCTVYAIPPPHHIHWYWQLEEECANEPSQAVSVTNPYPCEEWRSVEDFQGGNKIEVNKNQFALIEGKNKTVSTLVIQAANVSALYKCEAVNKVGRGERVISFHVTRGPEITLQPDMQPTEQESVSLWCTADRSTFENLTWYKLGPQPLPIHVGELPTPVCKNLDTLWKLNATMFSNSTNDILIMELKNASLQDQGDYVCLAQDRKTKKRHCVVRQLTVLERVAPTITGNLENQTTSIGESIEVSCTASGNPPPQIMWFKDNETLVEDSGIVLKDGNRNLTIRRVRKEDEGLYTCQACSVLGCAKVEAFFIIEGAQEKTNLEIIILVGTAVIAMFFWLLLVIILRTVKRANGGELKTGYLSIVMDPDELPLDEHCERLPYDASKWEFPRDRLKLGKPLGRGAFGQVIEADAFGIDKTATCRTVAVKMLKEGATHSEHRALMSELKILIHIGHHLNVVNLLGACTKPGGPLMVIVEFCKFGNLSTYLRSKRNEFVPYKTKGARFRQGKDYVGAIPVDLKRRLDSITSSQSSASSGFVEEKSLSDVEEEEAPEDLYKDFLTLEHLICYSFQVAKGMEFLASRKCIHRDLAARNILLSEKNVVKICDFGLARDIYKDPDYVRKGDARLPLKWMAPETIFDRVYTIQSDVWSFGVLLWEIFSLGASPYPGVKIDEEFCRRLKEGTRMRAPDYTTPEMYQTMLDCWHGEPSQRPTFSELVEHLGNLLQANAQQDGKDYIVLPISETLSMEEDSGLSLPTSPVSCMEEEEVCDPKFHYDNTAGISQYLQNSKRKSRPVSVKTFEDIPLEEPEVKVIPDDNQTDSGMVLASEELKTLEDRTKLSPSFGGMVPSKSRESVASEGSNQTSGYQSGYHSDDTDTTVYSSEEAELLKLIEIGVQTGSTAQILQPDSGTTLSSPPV

| IC50 (EGFR^T790M) | IC50 (VEGFR-2) | Structure (SMILES) | IC50 (HCT116) | IC50 (A549) | IC50 (MCF-7) | IC50 (HepG2) |
| --- | --- | --- | --- | --- | --- | --- |
|  |  | O=C1NC(=O)C(=Cc2ccco2)S1 [Compound 3, 5-(furan-2-ylmethylene)thiazolidine-2,4-dione] | 58.2 µM |  |  |  |
|  |  | O=C(CN1C(=O)SC(=Cc2cccs2)C1=O)Nc1ccccc1 [Compound 4a, 2-[2,4-Dioxo-5-(thiophen-2-ylmethylene)thiazolidin-3-yl]-N-phenylacetamide] | 58.2 ± 0.7 µM | 51 ± 2.5 µM | 63.6 ± 3.8 µM | 52.1 ± 5.2 µM |
|  |  | O=C(CN1C(=O)SC(=Cc2cccs2)C1=O)Nc1ccc(Cl)cc1 [Compound 4b, N-(4-Chlorophenyl)-2-[2,4-dioxo-5-(thiophen-2-ylmethylene)thiazolidin-3-yl]acetamide] | 38.4 ± 3.9 µM | 36.1 ± 1.9 µM | 36.9 ± 1.3 µM | 35.4 ± 5.1 µM |
|  |  | O=C(CN1C(=O)SC(=Cc2cccs2)C1=O)Nc1ccc(F)cc1 [Compound 4c, 2-[2,4-Dioxo-5-(thiophen-2-ylmethylene)thiazolidin-3-yl]-N-(4-fluorophenyl)acetamide] | 42.5 ± 3.9 µM | 38.3 ± 1.9 µM | 39 ± 1.3 µM | 34.2 ± 5.1 µM |
| 0.42 µM | 0.255 µM | O=C(CN1C(=O)SC(=Cc2cccs2)C1=O)Nc1ccc(Br)cc1 [Compound 4d, N-(4-Bromophenyl)-2-[2,4-dioxo-5-(thiophen-2-ylmethylene)thiazolidin-3-yl]acetamide] | 16.6 ± 3.9 µM | 19 ± 3.9 µM | 22.7 ± 3.9 µM | 13.5 ± 3.9 µM |
|  |  | Cc1ccc(NC(=O)CN2C(=O)SC(=Cc3cccs3)C2=O)cc1 [Compound 4e, 2-[2,4-Dioxo-5-(thiophen-2-ylmethylene)thiazolidin-3-yl]-N-(p-tolyl)acetamide] | 21.3 ± 3.9 µM | 34 ± 3.9 µM | 25.2 ± 3.9 µM | 24.5 ± 3.9 µM |
| 0.36 µM |  | COc1ccc(NC(=O)CN2C(=O)SC(=Cc3cccs3)C2=O)cc1 [Compound 4f, 2-[2,4-Dioxo-5-(thiophen-2-ylmethylene)thiazolidin-3-yl]-N-(4-methoxyphenyl)acetamide] | 17.7 ± 3.9 µM | 22.7 ± 3.9 µM | 22.3 ± 3.9 µM | 10.2 ± 3.9 µM |
| 0.23 µM |  | O=C(CN1C(=O)SC(=Cc2cccs2)C1=O)Nc1ccc(C(=O)O)cc1 [Compound 4g, 4-{2-[2,4-Dioxo-5-(thiophen-2-ylmethylene)thiazolidin-3-yl]acetamido}benzoic acid] | 11.2 ± 3.9 µM | 12.9 ± 3.9 µM | 10.7 ± 3.9 µM | 6.22 ± 3.9 µM |
|  |  | O=C(CN1C(=O)SC(=Cc2ccco2)C1=O)Nc1ccccc1 [Compound 5a, 2-[5-(Furan-2-ylmethylene)-2,4-dioxothiazolidin-3-yl]-N-phenylacetamide] | 48.3 ± 0.7 µM | 53.2 ± 2.5 µM | 59.6 ± 3.8 µM | 52.1 ± 5.2 µM |
|  |  | O=C(CN1C(=O)SC(=Cc2ccco2)C1=O)Nc1ccc(Cl)cc1 [Compound 5b, N-(4-Chlorophenyl)-2-[5-(furan-2-ylmethylene)-2,4-dioxothiazolidin-3-yl]acetamide] | 28.2 ± 3.9 µM | 36.2 ± 3.9 µM | 25.7 ± 3.9 µM | 23.8 ± 3.9 µM |
|  |  | O=C(CN1C(=O)SC(=Cc2ccco2)C1=O)Nc1ccc(F)cc1 [Compound 5c, N-(4-Fluorophenyl)-2-[5-(furan-2-ylmethylene)-2,4-dioxothiazolidin-3-yl]acetamide] | 35.7 ± 3.9 µM | 35.4 ± 1.9 µM | 28.6 ± 1.3 µM | 24.1 ± 2.5 µM |
|  | 0.276 µM | Cc1ccc(NC(=O)CN2C(=O)SC(=Cc3ccco3)C2=O)cc1 [Compound 5d, 2-[5-(Furan-2-ylmethylene)-2,4-dioxothiazolidin-3-yl]-N-(p-tolyl)acetamide] | 26.4 ± 1.4 µM | 29.7 ± 4.1 µM | 25.3 ± 4.5 µM | 23.6 ± 3.9 µM |
| 0.41 µM | 0.263 µM | CC(C)c1ccc(NC(=O)CN2C(=O)SC(=Cc3ccco3)C2=O)cc1 [Compound 5e, 2-[5-(Furan-2-ylmethylene)-2,4-dioxothiazolidin-3-yl]-N-(4-isopropylphenyl)acetamide] | 10.7 ± 3.9 µM | 32.9 ± 3.9 µM | 14.5 ± 3.9 µM | 23.8 ± 3.9 µM |
| 0.35 µM | 0.247 µM | COc1ccc(NC(=O)CN2C(=O)SC(=Cc3ccco3)C2=O)cc1 [Compound 5f, 2-[5-(Furan-2-ylmethylene)-2,4-dioxothiazolidin-3-yl]-N-(4-methoxyphenyl)acetamide] | 15.7 ± 3.9 µM | 13 ± 3.9 µM | 18.5 ± 3.9 µM | 11 ± 3.9 µM |
|  |  | O=C(CN1C(=O)SC(=Cc2ccco2)C1=O)Nc1ccc(C(=O)O)cc1 [Compound 5g, 4-{2-[5-(Furan-2-ylmethylene)-2,4-dioxothiazolidin-3-yl]acetamido}benzoic acid] | 9.04 ± 3.9 µM | 7.55 ± 3.9 µM | 10.7 ± 3.9 µM | 3.86 ± 3.9 µM |
|  |  | CNC(=O)c1cc(Oc2ccc(NC(=O)Nc3ccc(Cl)c(C(F)(F)F)c3)cc2)ccn1 [Sorafenib, sorafenib, reference compound] |  |  |  | 4 ± 0.33 µM |
